These results are taken from patent EP4644375A1, “SUBSTITUTED HYDROQUINOLINES FOR THE TREATMENT OF GLIOBLASTOMA MULTIFORME” (Molius Saglik Teknolojileri Anonim Sirketi, priority 2024, dated 2025).

Data set [1] concerns GBM xenograft rat model. Put plainly: In vivo GBM rat model: survival. The settings on record: GBM rats, 30 mg/kg oral gavage once daily for 5 days, 14th to 28th day, compared to untreated GBM rats. The procedure:
(§1) An in Vivo study was performed to assess the therapeutic potential of TR-G002, TR-G045, TR-G053, TR-G066, TR-G071 and TR-G091 in the GBM xenograft rat model when administered orally by gavage for five consecutive days. 152 female rats of the Sprague Dawley strain were allocated to the study. Six groups of sixteen females were given dose of 30 mg/kg of the respective target compounds. […] The study design can be seen in Fig. 11 and Table 10.
(§2) Female Sprague Dawley rats (age: 6-8 weeks; weight: 255-310 g; ATADEM, Erzurum, Turkey) were utilized in the study. Rats underwent anaesthesia with 5% isoflurane, maintained at 2% isoflurane (1 L/min oxygen), and were positioned in a stereotactic frame for cell implantation (Stoelting Co., IL). […] A burr hole was drilled 1-mm anterior and 3-mm lateral to the right bregma. A microsyringe (Hamilton 1700 series) containing 5×10^4 U87-MG cells suspended in 5 µL of medium at 37 °C was advanced to a depth of 4 mm into the brain. The cells were injected at a rate of 3 µL/ min. Bone wax was used to fill the burr hole to prevent cell suspension reflux. The incision was sutured, and 1 mL of Meloxicam (5 mg/mL; Metacam, Boehringer Ingelheim Vetmedica, Ingelheim, Germany) was administered via a subcutaneous injection.
(§3) Fourteen days after inoculation, tumor development in rats was visualized and confirmed through magnetic resonance imaging (MRI). Rats confirmed to have developed tumors were then distributed into six different groups for treatment. […] 9 days after the final treatment dose, the rats underwent another MRI scan and blood and brain samples were taken under anaesthesia.

Data set [2] relates to GFAP. Put plainly: In vivo GBM rat model: immunohistochemical examination. To be noted: brain tissues, GBM rats, 30 mg/kg oral, 5 days. The source says: (§4) For immunohistochemical examinations, primary antibodies (Ki67 Cat no: ab15580 dilution ratio: 1/100; CMPK2 Cat no: PA5-34461, dilution ratio: 1/100, GFAP Cat no: ab6842 dilution ratio: 1/100) were used. 3-3' Diaminobenzidine (DAB) was used as chromogen. Mayer's hematoxylin was used for counterstaining. Sections were examined under a light microscope (Zeiss AXIO, Germany).
(§5) Individual body weights were manually calculated. Group mean body weights; group mean body weight changes and organ weights were also manually calculated without statistical analysis. To determine the density of positive staining from immunohistochemical and immunofluorescence staining images, five randomly selected areas were evaluated using ZEISS Zen Imaging Software. Data were statistically defined as mean and standard deviation (mean ± SD) for the percentage of the area. One-way ANOVA followed by the Tukey test was performed to compare immunoreactive cells and immune-positive stained areas with healthy controls. GraphPad Prism software was used for analysis.

In data set [3] the test system is CMPK2. The description is as above. To be noted: tumor cells, brain tissues, GBM rats, 30 mg/kg oral, 5 days.
From the text: as §4, §5

Data set [4] concerns Ki67. The description is as above. To be noted: tumor cells, brain tissues, GBM rats, 30 mg/kg oral, 5 days.
From the text: as §4, §5

Data set [5] deals with GBM xenograft rat model. Put plainly: In vivo GBM rat model: MRI analysis of tumor volumes. The settings on record: GBM rats, 30 mg/kg oral, 5 days; for antitumor activities, order: ranking; for tumor size: MRI 14th vs 28th day. The procedure: as §1, §2, §3
The anaesthetic was administered via an intraperitoneal route on animals fixed in the supine position with parallel hind limbs. MRI was performed using a 3 Tesla clinical scanner (Magnetom Skyra; Siemens Healthineers, Erlangen, Germany). Rats were placed in the prone position. T2-SPACE (sampling perfection with application-optimized contrast using different flip angle Evolution) sequence was obtained to view the brain in coronal and transverse planes. (TR: 6000 ms, TE: 100 ms, voxel size: 0.5 × 0.5 × 1 mm, 34 slices, slice thickness: 2 mm, slice spacing: 0.6 mm). The volume measurements of brain tumors were performed manually. One radiologist calculated the tumour volume - manually measuring tumour length (L), width (W), and height (H) - and then calculated the tumour volume using the formula 0.5236 × L × W × H (Stuppner S et al., 2020).

Data set [6] concerns H2A.X. Kind of data set: In vivo GBM rat model: double immunofluorescence examination. To be noted: neurons, brain tissues, GBM rats, 30 mg/kg oral, 5 days. Here is the method:
(§6) In immunofluorescence examinations, primary antibody (NOP10 Cat no: ab134902 dilution ratio: 1/100) was applied to tissues and incubated according to the instructions. A fluorescent secondary antibody (FITC Cat No: ab6785 dilution Ratio: 1/1000 UK) was then applied and incubated in the dark for 45 minutes. Afterward, a second primary antibody (H2A.X Cat no: sc-517336 dilution ratio: 1/100) was applied and incubated according to the instructions. A different fluorescent secondary antibody (Texas Red Cat No: ab6719 dilution Ratio: 1/1000 UK) was applied and incubated in the dark for 45 minutes. Finally, DAPI (Cat no: D1306 dilution ratio: 1/200 UK) was applied to the sections for 5 minutes in the dark, followed by covering the tissues with coverslips. The stained tissues were examined under a fluorescence attachment-equipped microscope (Zeiss AXIO, Germany).
as §5

In data set [7] the test system is NOP10. The description is as above. The settings on record: neurons, brain tissues, GBM rats, 30 mg/kg oral, 5 days. The procedure: as §6, §5
The nature of data set [8]: In vivo GBM rat model: haematology. To be noted: GBM rats, 30 mg/kg oral, 5 days, blood at necropsy. The procedure: The parameters that were analysed can be seen in Table 11.
A short description of data set [9]: Peripheral blood micronucleus assay. The format is in vivo, Rat. To be noted: for MN frequency: GBM rats, 30 mg/kg oral, 5 days, 1000 cells per animal evaluated. Here is the method: Blood smears were made on clean microscope slides, allowed to air-dry, treated with methanol for fixation, and then stained with Giemsa (10% in 0.1 mM of sodium phosphate buffer, pH 6.8) for 10 min. After washing with PBS, the slides were examined under a light microscope. The frequencies of micronuclei (MN) were calculated by evaluating 1000 cells per animal.

Entries after “also recorded” stand apart in the source; their conditions may differ.

As for `C=CCOC(=O)COc1ccc2c(c1)CCC(=O)N2` [TR-G071, Allyl 2-((2-oxo-1,2,3,4-tetrahydroquinolin-6-yl)oxy)acetate], the survival result in data set [1] is reported as “prolonged survival”. Also, the “GFAP expression in astrocytes around the tumor” value (from here on “GFAP expression”) in data set [2] was “moderate”. Besides, the “expression of CMPK2” value in data set [3] is “moderate”. Further, the “expression of Ki67” value in [4] is “moderate”. For the same compound, the “antitumor activities, order” value in [5] is recorded as “TR-G066> TR-G045> TR-G002>TMZ> TR-G091> TR-G053> TR-G071”. In [6], the “expressions of H2AX” value was “moderate”. Moreover, in data set [7], the “expressions of Nopio” value was “moderate”. Besides, in [8], the HCT is on record as 48.15%, the HGB was 14.15 g/dL, the MCH was determined as 17.65 pg and the MCHC is given as 31.20 g/dL. In [8], the MCV was 58.65 fL, the PLT is reported as 823.00 10^9 /L, the RBC is recorded as 8.56 10^12/L and the WBC is recorded as 3.82 10^9/L. Further, in [9], the MN frequency was 12.43 ± 2.09.
`C=Cc1ccc(COc2ccc3c(c2)CCC(=O)N3)cc1` [TR-G053, 6-((4-vinylbenzyl)oxy)-3,4-dihydroquinolin-2(1H)-one]: the survival result in data set [1] was “prolonged survival”. The “GFAP expression” value in [2] was “mild”. In addition, the “expression of CMPK2” value in [3] is reported as “severe”. The “expression of Ki67” value in data set [4] is recorded as “severe”. In data set [5], the “antitumor activities, order” value is given as “TR-G066> TR-G045> TR-G002>TMZ> TR-G091> TR-G053> TR-G071”. In addition, in data set [6], the “expressions of H2AX” value was “severe”. Moreover, in data set [7], the “expressions of Nopio” value is reported as “severe”. In [8], this compound came in with an HCT of 48.77%, an HGB of 14.67 g/dL, an MCH of 17.83 pg and an MCHC of 30.07 g/dL. Also, in [8], the MCV stood at 59.33 fL, the PLT is 823.33 10^9 /L, the RBC was 8.23 10^12/L and the WBC was 3.40 10^9/L. This compound gave an MN frequency in data set [9] of 9.67 ± 1.21. Further, the “MN frequency (comparison)” value in [9] (treated GBM rats) is recorded as “lowest MN frequency”.
For `COc1cc(NC(=O)COc2ccc3c(c2)CCC(=O)N3)cc(OC)c1` [TR-G091, N-(3,5-dimethoxyphenyl)-2-((2-oxo-1,2,3,4-tetrahydroquinolin-6-yl)oxy)acetamide], in data set [1], the survival result is reported as “prolonged survival”. For the same compound, in [2], the “GFAP expression” value is “Moderate”. The “expression of CMPK2” value in [3] was “moderate”. For the same compound, the “expression of Ki67” value in [4] is on record as “moderate”. The “antitumor activities, order” value in data set [5] is “TR-G066> TR-G045> TR-G002>TMZ> TR-G091> TR-G053> TR-G071”. Besides, the “expressions of H2AX” value in [6] is “moderate”. In data set [7], the “expressions of Nopio” value was “moderate”. In [8], the HCT is 43.95%, the HGB is given as 13.80 g/dL, the MCH is given as 17.90 pg and the MCHC was 31.40 g/dL. Further, in data set [8], the MCV is listed as 56.95 fL, the PLT is reported as 744.50 10^9 /L, the RBC is 7.73 10^12/L and the WBC is on record as 6.56 10^9/L. In data set [9], this compound showed an MN frequency of 11.65 ± 2.30.
As to `CC(C)CCOc1ccc2c(c1)CCC(=O)N2` [TR-G002, 6-(isopentyloxy)-3,4-dihydroquinolin-2(1H)-one], the survival result in [1] (30 mg/kg) is recorded as “significantly improved survival; also recorded: prolonged survival”. Also, the “GFAP expression” value in data set [2] is “severe”. Moreover, in data set [3], the “expression of CMPK2” value is “mild”. Besides, the “expression of Ki67” value in data set [4] is reported as “mild”. In [5], the tumor size result is given as “small increase in tumor size” and the “antitumor activities, order” value is “TR-G066> TR-G045> TR-G002>TMZ> TR-G091> TR-G053> TR-G071”. Besides, in data set [6], the “expressions of H2AX” value is recorded as “mild”. The “expressions of Nopio” value in data set [7] was “mild”. In [8], this compound showed an HCT of 48.53%, an HGB of 14.88 g/dL, an MCH of 18.43 pg and an MCHC of 30.71 g/dL. Besides, in data set [8], the MCV worked out at 59.99 fL, the PLT is given as 805.75 10^9 /L, the RBC was 8.11 10^12/L and the WBC is listed as 3.65 10^9/L. In addition, the MN frequency in [9] came out at 11.62 ± 2.34.
Take `O=C1CCc2cc(OS(=O)(=O)c3cccc4ccccc34)ccc2N1` [TR-G045, 2-oxo-1,2,3,4-tetrahydroquinolin-6-yl naphthalene-1-sulfonate]: the survival result in [1] (30 mg/kg) is recorded as “significantly improved survival; also recorded: prolonged survival”. Also, the “GFAP expression” value in [2] is “moderate”. Also, the “expression of CMPK2” value in data set [3] was “moderate”. The “expression of Ki67” value in data set [4] is “moderate”. Also, in [5], the tumor size entry is “decrease in tumor size” and the “antitumor activities, order” value is recorded as “TR-G066> TR-G045> TR-G002>TMZ> TR-G091> TR-G053> TR-G071”. In addition, in data set [6], the “expressions of H2AX” value is given as “moderate”. Also, in data set [7], the “expressions of Nopio” value is on record as “moderate”. In [8], the HCT is recorded as 47.24%, the HGB worked out at 14.12 g/dL, the MCH amounted to 18.46 pg and the MCHC is recorded as 30.54 g/dL. In [8], the MCV stood at 60.48 fL, the PLT is 845.60 10^9 /L, the RBC is given as 8.34 10^12/L and the WBC is reported as 4.32 10^9/L. The compound further returned an MN frequency in data set [9] of 12.05 ± 1.78.
